Results on eight compounds are retold here after ChEMBL document CHEMBL1201862, “PubChem BioAssay data set” (2004).

What all share (assay): NCI anticancer screen, dose series, 48 h
For assay [1], the system named is SK-MEL-28.
Assay [2] concerns T47D.
The subject of assay [3] is SR.
In assay [4] the test system is NCI-H460.
Assay [5] relates to SK-MEL-5.
Assay [6] relates to MDA-MB-435.
The test system of assay [7] is SF-539.
The subject of assay [8] is TK-10.
Assay [9] has as its system NCI/ADR-RES.
Assay [10] deals with SN12C.
Assay [11] deals with MDA-MB-231.
The subject of assay [12] is DLD-1.
The subject of assay [13] is NCI-H226.
The test system of assay [14] is HCC 2998.
Assay [15] deals with COLO 205.
In assay [16] the test system is UO-31.
For assay [17], the system named is EKVX.
Assay [18] relates to A498.
Assay [19] has as its system HCT-15.
For assay [20], the system named is CAKI-1.

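Method: 48-hour compound exposure of cells in 96-well plates, five concentrations, linear interpolation of endpoints. GI50 is the concentration that inhibits growth by half.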 Activity calls are given as the source filed them. Cut-off read from the data, not from the text of the source: active = GI50 up to about 1.1 µM and inactive = higher.

Take `COC1C(C)OC(OC2CC(C)(O)Cc3cc4c(c(O)c32)C(=O)c2c(O)cc3c(c2C4=O)OC2OC3(C)C(O)C(N(C)C)C2O)C(OC)C1(C)OC` (stereo not given): the GI50 is 0.00557 µM (active) in assay [1]; 2.9e-05 µM (active) in assay [2]; 0.00385 µM (active) in assay [3]; 0.00345 µM (active) in [4]; 0.0237 µM (active) in assay [5]; 0.00102 µM (active) in assay [6]. In addition, the GI50 in assay [7] is 0.00348 µM (active); in assay [8], 0.00527 µM (active); in assay [9], 2.21 µM (inactive); in assay [10], 0.0378 µM (active); in [11] it was 0.00129 µM (active); in assay [12] it was 0.119 µM (active). Besides, the GI50 in [13] is 0.0508 µM (active); in assay [14], 0.0342 µM (active); in [15], 0.0179 µM (active); in assay [16] it was 0.411 µM (active); in [17], 0.0409 µM (active); in assay [18] it was 0.0256 µM (active). Moreover, the GI50 in assay [19] was 0.00849 µM.

For the compound `C=CCNC(=O)/C=C\C(=O)O`, the GI50 in assay [1], in assay [3], in assay [4], in assay [5], in [20] and in assay [7] was > 100 µM (inactive) throughout. Also, the GI50 in assay [8], in [10], in assay [12], in [13], in assay [14] and in assay [15] was > 100 µM (inactive) throughout. Also, the GI50 was > 100 µM (inactive) in assay [16], > 100 µM (inactive) in [17], > 100 µM (inactive) in assay [18] and greater than 100 µM in assay [19].

Turning to `CC1CC(C)C2OC2(C)C[C@H](C)C(=O)NC(C)C(=O)N(C)[C@H](Cc2c(Br)[nH]c3ccccc23)C(=O)N[C@@H](c2ccc(O)cc2)CC(=O)O1` (stereo not given in full), the GI50 was 0.839 µM (active) in assay [1]; 0.277 µM (active) in [3]; 0.0388 µM (active) in assay [4]; 0.0933 µM (active) in assay [5]; 1.09 µM (active) in [20]; 0.111 µM (active) in [7]. Besides, the GI50 in assay [8] was 0.741 µM (active); in [10], 0.776 µM (active); in assay [12], 3.37 µM (inactive); in assay [13], 0.373 µM (active); in [14] it was 0.11 µM (active); in assay [15] it was 0.0214 µM (active). In addition, the GI50 was 10 µM (inactive) in assay [16], 2.02 µM (inactive) in assay [17], 0.522 µM (active) in assay [18] and 39.3 µM in assay [19].

Regarding `CC(=O)O[C@H]1C(=O)[C@@]2(C)C(C(OC(=O)c3ccccc3)[C@]3(O)CC(OC(=O)C(O)C(NC(=O)c4ccc(C(F)(F)F)cc4)c4ccccc4)C(C)=C1C3(C)C)[C@]1(OC(C)=O)CO[C@@H]1C[C@@H]2O` (stereo not given in full), the GI50 in assay [1] was 0.128 µM (active); in assay [3], 0.0264 µM (active); in [4], 0.103 µM (active); in assay [5], 0.0942 µM (active); in assay [20] it was 0.076 µM (active); in [7], 0.166 µM (active). Moreover, the GI50 was 1.95 µM (inactive) in assay [8]; 0.159 µM (active) in assay [10]; 0.231 µM (active) in assay [12]; 0.0977 µM (active) in assay [13]; 0.101 µM (active) in [14]; 0.0706 µM (active) in [15]. In addition, the values for the GI50 in [18] and in assay [19] were 1.19 µM (inactive) and 4.97 µM, respectively.

As to `O=NN(CCCl)C(=O)NC1CCC(=O)NC1=O` (stereo not given), the GI50 is 409 µM (inactive) in assay [1]; 384 µM (inactive) in assay [2]; 25.4 µM (inactive) in assay [3]; 83.8 µM (inactive) in assay [4]; 121 µM (inactive) in assay [5]; 270 µM (inactive) in assay [20]. For the same compound, the GI50 in assay [6] was 191 µM (inactive); in assay [7] it was 50.8 µM (inactive); in [8] it was 379 µM (inactive); in assay [9] it was 193 µM (inactive); in assay [10], 243 µM (inactive); in assay [11] it was 286 µM (inactive). Further, the GI50 in [12] is 358 µM (inactive); in assay [13], 232 µM (inactive); in assay [14], 713 µM (inactive); in assay [15], 267 µM (inactive); in [16], 676 µM (inactive); in assay [17], 415 µM (inactive). Further, the GI50 was 174 µM (inactive) in [18] and 300 µM in assay [19].

Regarding `CC/C(CC(=O)CCC(=O)Nc1ccc(C)c(C)c1)=N\NC(=O)C(N)=O`, the GI50 in assay [1], in [3], in [5], in [20], in assay [7] and in assay [8] was > 100 µM (inactive) in each case. The GI50 in assay [10], in assay [12], in [13], in [15], in [16] and in assay [17] was > 100 µM (inactive) throughout. In addition, the GI50 in assay [18] was > 100 µM (inactive); in [19], greater than 100 µM.

As for `O=S(=O)(NCn1ccc2ccccc21)c1ccccc1`, the GI50 is > 77.8 µM (inactive) in [1]; 31.6 µM (inactive) in assay [3]; > 100 µM (inactive) in assay [4]; > 100 µM (inactive) in assay [5]; > 100 µM (inactive) in [7]; > 100 µM (inactive) in assay [8]. The GI50 is > 100 µM (inactive) in assay [10]; 40.9 µM (inactive) in assay [12]; > 100 µM (inactive) in assay [13]; > 100 µM (inactive) in assay [14]; > 79.8 µM (inactive) in assay [15]; > 100 µM (inactive) in assay [16]. Besides, the GI50 in assay [17] was > 100 µM (inactive); in [18], > 100 µM (inactive); in [19], greater than 57.7 µM.

`O=C1NC2C(=O)N(Cc3ccccc3)C(=O)C2N1` (stereo not given): the GI50 in assay [1], in assay [3], in [4], in assay [5], in [20] and in assay [7] was > 100 µM (inactive) throughout. The GI50 in [8], in [10], in [12], in assay [13], in [14] and in [15] was > 100 µM (inactive) in each case. The GI50 is > 100 µM (inactive) in assay [16], > 100 µM (inactive) in assay [17], > 100 µM (inactive) in assay [18] and greater than 100 µM in assay [19].
